Experimental data: patent publication US7780859B2, “Uncoupling agents” (Rhodia Operations, priority 2003, dated 2010)
Where two headings read alike, the source gives them in different places.

Tests used:
sludge microorganisms [1] = details: 4 mg/l/day, pre-dilution, 52 days
Protocol: The equipment used in this test sequence was identical to that used for example 1 except that the reactor was not fitted with a recirculating line for flash mixing.
The procedure was identical to that used for example 1 except that the method of dosing Compound X was different. In this case, 5 grams of Compound X was mixed into a solution containing 5 grams of sodium hydrogen carbonate in 1 liter of deionised water. 4.0 ml of this solution was added to 500 ml of clarified wastewater which had been extracted from the bioreactor. The treated clarified wastewater was then returned to the bioreactor and normal operation of the bioreactor was resumed. The final concentration of Compound X in the bioreactor therefore equates to 4 mg per liter. This procedure was conducted daily, 5 times per week.
The experiment was conducted in parallel with example 1, i.e. for 52 days before decommissioning the system.
A Compound X concentration of 4 milligrams per liter per day was used.

sludge microorganisms [2] = details: for Growth Yield / Specific Activity / Growth Yield Reduction: flash mixing, 52 days; for Growth Yield Reduction: vs untreated control
Source text: A series of semi-continuous chemostat reactors was constructed to simulate wastewater treatment processes.
The central part of the equipment is the biological chemostat reactor 1. The reactor vessel 2 is made of glass, with an internal volume of 10 liters and is fitted with pH 3 and dissolved oxygen 4 sensors and an air sparge 5. This contains the sludge, which is, essentially, a mass of typical wastewater treatment microorganisms. The reactor operates at an ambient temperature (approximately 20° C.).
Simulated wastewater 13 is contained in a separate vessel 6 and maintained at 4° C. to prevent microbial spoilage. It is transferred into the reactor via a supply line 7 and a peristaltic pump 8.
A recirculating line 9 is provided on the reactor comprising a length of flexible silicone tubing and a peristaltic pump 10. The peristaltic pump extracts the sludge from the reactor into the recirculation line. The candidate water-soluble biocide is introduced into this line 9 through a needle 11, which is fed by a syringe pump 12. Using this system it is possible to achieve “flash mixing” which ensures rapid contact of the water-soluble biocide with the sludge microorganisms. The internal diameter of the recirculating line was 8 mm and the flow velocity was 0.5 meters per second, which gave a contact time, between candidate water-soluble biocide and sludge of 3 seconds before it re-entered the reactor.
Treated effluent 17 is removed from the reactor into a collecting vessel 16 via an outlet line 15.
The reactor was charged with sludge obtained from the Municipal wastewater treatment works at Courly-Lyon, in France. This sludge provided the “seed” to start the process off. The reactor was then filled, to the 5 liter mark, with simulated wastewater, adjusted to approximately pH 7.5, and aeration was commenced.
Each weekday (i.e. 5 times per week), 13.3% of the bioreactor contents were withdrawn to maintain the equilibrium. This ensured a sludge age in the region of 7.5 days.
Also, each weekday, after the adjustments described in the preceding paragraph, candidate water-soluble biocide (as a dilute solution) was injected into the system via the flash mixing recirculating line. The dilute solution was prepared by dissolving 10 grams of sodium hydrogen carbonate in approximately 900 ml of deionised water then adding 5 grams of candidate water-soluble biocide and mixing well. The mixture was then made up to 1 liter with deionised water. The appropriate volume of this dilute solution was injected to achieve the required dose level.
The experiment was conducted for 52 days before decommissioning the system.
Compound X was evaluated in the test. This compound is a 75% aqueous solution of tetrakis(hydroxymethyl)phosphonium sulphate (THPS). Two concentrations were evaluated: 2 and 4 milligrams per liter per day.

[3] = system: municipal activated sludge; test: Laboratory screening test for growth uncoupling by oxygen consumption pattern analysis (Oxitop BOD system); details: test biocides at 1, 2.5, 5, 10 and 25 mg/l; 2,4-dinitrophenol at 20 mg/l; 7 days at 20° C.
Source text: A laboratory screening test was developed to determine the impact of chemical compounds on respiration parameters through an oxygen consumption pattern analysis using a model based on published work by Monod and Pirt^1. Growth uncoupling is characterised by an increase in oxygen consumption during bacterial growth in a synthetic growth medium. 1. Monod J. 1950, Ann Inst Pasteur, “La Technique de Culture Continue, Theorie et Applications”, 79:390-410. Monod J. 1942, “Recherches sur la Croissance des Cultures Bactériennes”. Paris Herman p. 210. Pirt S J. (1965) “The Maintenance Energy of Bacteria In Growing Cultures”. Proceedings of the Royal Society of London B 163, 224-231. “Principles of Water Quality Management”. Ed: W. W. Eckenfelder, Jr. CBI Publishing Company, Inc USA. […]
For the evaluation of proposed water-soluble biocides, the oxygen consumption kinetics are measured and, a process of computer iteration optimises the equation coefficients optimised to fit the oxygen consumption curve.
From the optimised coefficients, the degree of bacterial uncoupling can be calculated. […]
Three conventional water treatment biocides were evaluated as bacterial water-soluble biocides. […]
Based on the liquid sludge, 2,4-dinitrophenol was dosed at 20 mg/l, this being the known level at which significant uncoupling would result. The test biocides were each evaluated at 1, 2.5, 5, 10 and 25 mg/l. […]

Compound	Growth Yield (sludge microorganisms [1])	Specific Activity (sludge microorganisms [1])	Growth Yield Reduction (sludge microorganisms [1]; vs untreated control)	Growth Yield (sludge microorganisms [2]; 2 mg/l/day)	Specific Activity (sludge microorganisms [2]; 2 mg/l/day)	Growth Yield Reduction (sludge microorganisms [2]; 2 mg/l/day)	Growth Yield (sludge microorganisms [2]; 4 mg/l/day)	Specific Activity (sludge microorganisms [2]; 4 mg/l/day)	Growth Yield Reduction (sludge microorganisms [2]; 4 mg/l/day)	sludge growth (sludge microorganisms [2]; flash treatment, low dose levels)	concentration of protozoans and other higher organisms in the sludge (sludge microorganisms [2]; treated sludge relative to untreated)	filamentous bacteria in the sludge (sludge microorganisms [2]; treated systems vs untreated control)	level of uncoupling (percentage uncoupling, FIG. 4) [3]
tetrakis(hydroxymethyl)phosphonium sulphate [Compound X]	0.201 g MLSS/g COD	0.636 g COD/g MLSS.d	26.4%	0.202 g MLSS/g COD	0.582 g COD/g MLSS.d	27.7%	0.167 g MLSS/g COD	0.772 g COD/g MLSS.d	37.6%	significantly reducing sludge growth	significantly higher concentration	substantially absent	–
CCCCCCCCCCCC[N+](C)(C)C.[Cl-] [C, Dodecyltrimethylammonium chloride]	–	–	–	–	–	–	–	–	–	–	–	–	greater levels of uncoupling at significantly lower dose levels than the conventional water-soluble biocide, 2,4-dinitrophenol
